From ChEMBL document CHEMBL1151488, “Synthesis and biological activity of J-104,118, a novel, potent inhibitor of squalene synthase” (Bioorg Med Chem Lett, 1995)

Tested on: not listed separately
Assay: Inhibition of cholesterol synthesis by compound after oral administration at of 10-100 mg/kg/day in marmoset
Format: functional

Row | SMILES | Reduction
1 | C=C(CCC12OC(C(=O)O)C(O)(C(=O)O)C(C(=O)O)(O1)[C@H](OC(=O)/C=C/[C@@H](C)C[C@@H](C)CC)[C@H]2O)[C@@H](OC(C)=O)[C@H](C)Cc1ccccc1 (some centres not stated) [ZARAGOZIC ACID A] | 75%

Tested on: Mus musculus
Assay: Tested for inhibition of cholesterol synthesis by compound after oral administration at 10 mg/kg in mice
Format: functional

Row | SMILES | inhibition in vivo at 10 mg/kg
2 | C=C(CCC12OC(C(=O)O)C(O)(C(=O)O)C(C(=O)O)(O1)[C@H](OC(=O)/C=C/[C@@H](C)C[C@@H](C)CC)[C@H]2O)[C@@H](OC(C)=O)[C@H](C)Cc1ccccc1 (some centres not stated) [ZARAGOZIC ACID A] | 38%

Tested on: Mus musculus
Assay: Inhibition of cholesterol synthesis from [14C]acetate expressed as percent reduction in radioactivity in mice after oral administration of 3 mg/kg
Format: functional

Row | SMILES | Reduction
3 | C[C@H](NC(=O)C[C@@H](CC(=O)O)C(=O)O)[C@@H](Cc1ccc(Cl)c(Cl)c1)c1ccc(-c2ccccc2)c(F)c1 | 84%

Biological target: T1, Squalene synthase (Homo sapiens, UniProt P37268)
T1 sequence (P37268 whole entry): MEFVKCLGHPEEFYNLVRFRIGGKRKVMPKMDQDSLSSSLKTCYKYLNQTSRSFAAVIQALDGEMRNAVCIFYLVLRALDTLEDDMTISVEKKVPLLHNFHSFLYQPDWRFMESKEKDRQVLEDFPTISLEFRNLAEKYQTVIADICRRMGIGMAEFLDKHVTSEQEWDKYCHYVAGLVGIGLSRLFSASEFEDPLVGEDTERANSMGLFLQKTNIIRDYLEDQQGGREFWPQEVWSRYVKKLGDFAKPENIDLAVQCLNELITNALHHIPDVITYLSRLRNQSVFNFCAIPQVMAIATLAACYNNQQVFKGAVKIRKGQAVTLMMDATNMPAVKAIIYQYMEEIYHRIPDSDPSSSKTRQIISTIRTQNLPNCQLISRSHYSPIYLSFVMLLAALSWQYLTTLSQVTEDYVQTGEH
Assay: Inhibitory activity against HepG2 Squalene Synthase (SQS)

Row | SMILES | IC50
4 | C[C@@H](NC(=O)C[C@H](CC(=O)O)C(=O)O)[C@H](Cc1ccc(Cl)c(Cl)c1)c1ccc(-c2ccccc2)c(F)c1 | 16 nM
5 | C[C@H](NC(=O)C[C@@H](CC(=O)O)C(=O)O)[C@@H](Cc1ccc(Cl)cc1)c1ccc(-c2ccccc2)cc1 | 3.2 nM
6 | CC(NC(=O)CC(CC(=O)O)C(=O)O)C(Cc1ccc(Cl)cc1)c1ccc(Cl)cc1 (configuration not stated) | 660 nM
7 | C[C@H](NC(=O)C[C@@H](CC(=O)O)C(=O)O)[C@@H](Cc1ccc(Cl)c(Cl)c1)c1ccc(-c2ccccc2)c(F)c1 | 0.52 nM

Further lines, results first:

Row | IC50 | SMILES
8 | > 300 nM | C[C@H](NC(=O)CC(CC(=O)O)C(=O)O)[C@@H](Cc1ccc(Cl)c(Cl)c1)c1ccc(-c2ccccc2)c(F)c1 (some centres not stated)
9 | 19 nM | C[C@@H](NC(=O)C[C@H](CC(=O)O)C(=O)O)[C@@H](Cc1ccc(Cl)c(Cl)c1)c1ccc(-c2ccccc2)c(F)c1
10 | > 300 nM | C[C@@H](NC(=O)CC(CC(=O)O)C(=O)O)[C@H](Cc1ccc(Cl)c(Cl)c1)c1ccc(-c2ccccc2)c(F)c1 (some centres not stated)
11 | 1.2 nM | C[C@H](NC(=O)C[C@@H](CC(=O)O)C(=O)O)[C@@H](Cc1ccc(Cl)c(Cl)c1)c1ccc(-c2ccccc2)cc1
12 | 0.73 nM | C[C@H](NC(=O)CC(CC(=O)O)C(=O)O)[C@@H](Cc1ccc(Cl)c(Cl)c1)c1ccc(-c2ccccc2)c(F)c1 (single isomer, unassigned)
